Patent US7691578B2, “Methods and compositions for treating obesity” (Dana-Farber Cancer Institute, Inc., priority 2004, dated 2010)
Entries after “also recorded” stand apart in the source; their conditions may differ. Read-outs that look alike come from different tables or passages of the source.

Experiments:
[1] = tested on: AMP Kinase; assay: Western blot of phosphorylated (activated) AMP Kinase in HIB1B cells; assay type: cell-based; conditions: 24 hours
Protocol: (§1) HIB1B brown fat cells were grown in DMEM (10% cosmic calf serum)+0.25 mg/ml penicillin/streptomycin at 37° C., 10% CO2.
(§2) In FIG. 2A, HIB1B cells were treated with 2 μM FCCP for 0-72 hours. In FIG. 2B, cells were treated with 50 μM FCCP for 0-48 hours. In FIG. 2C, cells were treated for 24 hours with either 50 μM FCCP or 500 μM AICAR, a compound that activates AMP Kinase. Protein was isolated, run on an SDS polyacrylamide gel, and transferred to a PVDF membrane, and blotted for the proteins indicated in the figures.

[2] = tested on: PGC-1α; assay: Real time PCR of PGC-1α expression in 10T 1/2 fibroblasts; assay type: cell-based
Protocol: (§3) HIB1B brown fat cells were grown in DMEM (10% cosmic calf serum)+0.25 mg/ml penicillin/streptomycin at 37° C., 10% CO2. 10T 1/2 fibroblasts were grown in DMEM+10% fetal bovine serum+0.25 mg/ml penicillin/streptomycin at 37° C., 10% CO2.
(§4) 10T 1/2 cells were treated with 50 μM FCCP, 10 μM BAPTA, a calcium chelator, or both FCCP and BAPTA for 16 hours. RNA was extracted using trizol and gene expression was measured using real time PCR. All expression levels were adjusted to actin and then the fold induction of expression was determined using the untreated cells as the control.
(§5) 10T 1/2 fibroblasts were grown in DMEM+10% fetal bovine serum+0.25 mg/ml penicillin/streptomycin at 37° C., 10% CO2. HIB1B cells were grown in DMEM+10% cosmic calf serum+0.25 mg/ml penicillin/streptomycin at 37° C., 10% CO2.
(§6) In FIG. 11A, 10T 1/2 cells were treated with 50 μM FCCP for 16 hours; in FIG. 11B, cells were treated for 72 hours with 25 μM FCCP. RNA was extracted using trizol and gene expression was measured using real time PCR. All expression levels were adjusted to actin and then the fold induction of expression was determined using the untreated cells as the control. In FIG. 11C, 10T 1/2 cells were treated for 16 hours with 50 μM FCCP. Lactate levels were measured using a lactate kit (Trinity Biotech), cells were counted, and lactate was graphed as mg lactate per million cells. In FIG. 12, HIB1B preadipocytes were treated with 25 μM FCCP, 250 μM DNP, 750 μM DNP or 1 mM DNP. RNA was extracted and run on a 1% agarose-formaldehyde gel (30 μg of RNA per lane). The gel was transferred to a nylon membrane and was probed for PGC-1α RNA and 36B4 RNA (36B4 represents the loading control).

[3] = tested on: COX II; assay: Real time PCR of COX II expression in 10T 1/2 fibroblasts; assay type: cell-based; conditions: 16 hours
Protocol: as §3, §4, §5
as §6, with “In FIG. 12, HIB1B preadipocytes were treated with 25 μM FCCP, 250 μM DNP, 750 μM DNP or 1 mM DNP. RNA was extracted and run on a 1% agarose-formaldehyde gel (30 μg of RNA per lane). The gel was transferred to a nylon membrane and was probed for PGC-1α RNA and 36B4 RNA (36B4 represents the loading control).” left out

[4] = tested on: ATP synthase; assay: Real time PCR of ATP synthase expression in 10T 1/2 fibroblasts; assay type: cell-based; conditions: 16 hours
Protocol: as §3, §4, §5
as §6, with “In FIG. 12, HIB1B preadipocytes were treated with 25 μM FCCP, 250 μM DNP, 750 μM DNP or 1 mM DNP. RNA was extracted and run on a 1% agarose-formaldehyde gel (30 μg of RNA per lane). The gel was transferred to a nylon membrane and was probed for PGC-1α RNA and 36B4 RNA (36B4 represents the loading control).” left out

[5] = tested on: cytochrome c; assay: Real time PCR of cytochrome c expression in 10T 1/2 fibroblasts; assay type: cell-based; conditions: 16 hours
Protocol: as §3, §4, §5
as §6, with “In FIG. 12, HIB1B preadipocytes were treated with 25 μM FCCP, 250 μM DNP, 750 μM DNP or 1 mM DNP. RNA was extracted and run on a 1% agarose-formaldehyde gel (30 μg of RNA per lane). The gel was transferred to a nylon membrane and was probed for PGC-1α RNA and 36B4 RNA (36B4 represents the loading control).” left out

[6] = tested on: PGC-1β; assay: Real time PCR of PGC-1β expression in 10T 1/2 fibroblasts; assay type: cell-based; conditions: 16 hours
Protocol: as §3, §4, §5
as §6, with “In FIG. 12, HIB1B preadipocytes were treated with 25 μM FCCP, 250 μM DNP, 750 μM DNP or 1 mM DNP. RNA was extracted and run on a 1% agarose-formaldehyde gel (30 μg of RNA per lane). The gel was transferred to a nylon membrane and was probed for PGC-1α RNA and 36B4 RNA (36B4 represents the loading control).” left out

[7] = tested on: animals; conditions: large doses of DNP; cited from earlier work
[8] = tested on: PGC-1α; assay: Northern blot of PGC-1α expression in HIB1B brown fat cells; assay type: cell-based
Protocol: as §1
(§7) In FIGS. 1A and 1B, HIB1B cells were treated with 25 μM FCCP for 0-25 hours. In FIG. 1C, HIB1B cells were treated for 5 hours with 0-200 μM FCCP. RNA was extracted using trizol and was resuspended in ddH2O. RNA was run on a 1% agarose-formaldehyde gel, and 30 ug of RNA was used per lane. 36B4 was used as the loading control.
In FIG. 5A, HIB1B cells were treated with 0-15 μM Antimycin A, a Complex III inhibitor. In FIG. 5B, cells were treated for either 5 or 10 hours with 0-50 μM Atractlyoside, an adenine nucleotide transporter (ANT) inhibitor. RNA was extracted, run on a formaldehyde gel and transferred to a nylon membrane as previously described. Membranes were blotted for PGC-1α mRNA.
In FIG. 7, HIB1B cells were treated for 5 hours with 0-50 μM Ruthenium Red (RR), an inhibitor of the mitochondrial Ca^2+ uniporter, simultaneously with either 5 μM or 25 μM FCCP as indicated in the figure. Untreated cells served as a control. RNA was extracted and analyzed as previously described. Membranes were blotted for PGC-1α. 36B4 served as the loading control.
as §6

[9] = in vivo; cited from earlier work
[10] = tested on: PGC-1β; conditions: Fao cells
Protocol: (§8) Fao liver hepatoma cells were grown in RPMI (10% fetal bovine serum)+0.25 mg/ml penicillin/streptomycin at 37° C., 5% CO2.
(§9) In FIG. 6A, Fao liver hepatoma cells were treated with 2 μM FCCP for 0-48 hours. In FIGS. 6B and 6C, cells were treated for 24 hours with either 2 μM or 25 μM FCCP. RNA was extracted and analyzed as previously described.

[11] = tested on: UCP2; conditions: Fao cells, 24 hour treatment, 2 μM and 25 μM FCCP
Protocol: as §8, §9

[12] = tested on: 10T 1/2 fibroblasts; conditions: 50 μM FCCP, 16 hours
Protocol: as §5, §6

[13] = tested on: NRF-1; conditions: 10T 1/2 fibroblasts, 50 μM FCCP, 16 hours
Protocol: as §5, §6

[14] = tested on: PGC-1α; conditions: HIB1B cells, 8 hours
Protocol: as §1
In FIG. 3, cells were treated for 8 hours as indicated on the figure. RNA was extracted as previously described and quantified using real time PCR. PGC-1α mRNA levels were normalized to TBP prior to analysis.

[15] = tested on: mice
Protocol: The procedures to be used in these experiments are as follows: IP injections of the chemical uncoupling agent FCCP are performed daily (see experimental design for dose and time information). The body temperature of the mice is measured one hour after injections so as to monitor pain and distress. If the temperature rises above 42 degrees the mice are sacrificed. The following tissues are collected from euthanized mice: brown fat, skeletal muscle, and liver, which contribute the most to standard metabolic rate. In addition, heart, pancreas, large intestine, small intestine, gall bladder, spleen, brain, testes, and ovary are collected. Tissues are used to assess PGC-1 gene expression and protein levels.
The maximum dose of FCCP that is used in this experiment is 0.5 mg/kg/day. The experiment is performed in C57 BL/6J and ob/ob (C57 BL/6J background) mice ordered from Jackson Laboratories.
Mice receive one IP injection of FCCP daily. The following experiment is repeated three times for statistical significance.
Body temperature is measured one hour after injections and weight is recorded every three days. Mice are sacrificed to avoid pain if the body temperature rises above 42 degrees. After the treatments as described above the mice are sacrificed using cervical dislocation with pre-anesthesia. […]

[16] = tested on: PGC-1α protein; conditions: HIB1B cells, 2 μM FCCP, up to 72 hours
Protocol: as §1, §2

[17] = tested on: cytochrome c protein; conditions: HIB1B cells, 50 μM FCCP, up to 48 hours
Protocol: as §1, §2

[18] = tested on: PGC-1β; conditions: HIB1B cells
Protocol: as §1, §7

[19] = tested on: HIB1B brown fat cells; conditions: 25 μM FCCP
Protocol: as §1
In FIG. 4, HIB1B cells were treated for either 5 or 10 hours with either 0 μM or 25 μM FCCP. ATP levels were measured using the Calbiochem ATP assay kit. For analysis, ATP levels were compared to those of untreated cells at the 5 and 10 hour time points.

[20] = tested on: cytochrome c; conditions: PGC-1α knock out preadipocytes, 25 μM FCCP, 24 hours
Protocol: (§10) Wild type and PGC-1α knock out preadipocytes were grown in DMEM+20% fetal bovine serum+0.25 mg/ml penicillin/streptomycin at 37° C., 10% CO2.
(§11) Wild type and PGC-1α knock out preadipocytes were treated for 24 hours with or without 25 μM FCCP. RNA was extracted using trizol and gene expression was measured using real time PCR. All expression levels were adjusted to actin and then the fold induction of expression was determined using the untreated cells as the control.

[21] = tested on: COX II; conditions: PGC-1α knock out preadipocytes, 25 μM FCCP, 24 hours
Protocol: as §10, §11

[22] = tested on: NRF-1; conditions: PGC-1α knock out preadipocytes, 25 μM FCCP, 24 hours
Protocol: as §10, §11

[23] = tested on: PGC-1β; conditions: PGC-1α knock out preadipocytes, 25 μM FCCP, 24 hours
Protocol: as §10, §11

[24] = tested on: adenine nucleotide translocase (ANT); conditions: PGC-1α knock out preadipocytes, 25 μM FCCP, 24 hours
Protocol: as §10, §11

[25] = tested on: ERRα; conditions: PGC-1α knock out preadipocytes, 25 μM FCCP, 24 hours
Protocol: as §10, §11

[26] = 10T 1/2 cells, 10 μM BAPTA with 50 μM FCCP
[27] = 10T 1/2 fibroblasts, 50 μM FCCP
[28] = 5 hours, increasing doses of FCCP (0-200 μM)

Compound: NC(=O)c1ncn([C@@H]2O[C@H](CO)[C@@H](O)[C@H]2O)c1N [AICAR]
- AMP Kinase activation (phospho-AMP kinase) ([1]; 500 μM AICAR, positive control): activation

Compound: O=C(O)CN(CC(=O)O)c1ccccc1OCCOc1ccccc1N(CC(=O)O)CC(=O)O [BAPTA]
- effect on FCCP-mediated induction of PGC-1α ([2]; 10T 1/2 cells, 10 μM BAPTA with 50 μM FCCP, 16 hours): blocked
- effect on FCCP-mediated induction of COX II [3, 26]: blocked
- effect on FCCP-mediated induction of ATP synthase [4, 26]: blocked
- effect on FCCP-mediated induction of cytochrome c [5, 26]: blocked
- effect on FCCP-mediated induction of PGC-1β [6, 26]: blocked

Compound: O=[N+]([O-])c1ccc(O)c([N+](=O)[O-])c1 [DNP, 2,4-dinitrophenol]
- toxic effect of large doses [7]: almost immediate onset of rigor mortis
- PGC-1α expression ([8]; 5 hours, three concentrations of DNP (250 μM, 750 μM, 1 mM)): caused an increase; also recorded: induces

Compound: N#CC(C#N)=NNc1ccc(OC(F)(F)F)cc1 [FCCP, carbonylcyanide-p-trifluoromethoxyphenylhydrazone]
- expression of the PGC-1 coactivators and their target genes after long term treatment ([2]; 10T 1/2 fibroblasts, 25 uM FCCP, 72 hours): remain elevated
- PGC-1α expression ([2]; 10T 1/2 fibroblasts, 50 μM FCCP, 16 hours): induced
- LD50 for FCCP relative to that of DNP [9]: about 5 times less
- PGC-1β expression levels ([10]; 2 μM FCCP, after approximately 24 hours): increased
- PGC-1β expression levels ([10]; 24 hour treatment, 2 μM and 25 μM FCCP): increased
- UCP 2 expression levels [11]: increased
- lactate levels [12]: induced
- NRF-1 expression [13]: induced
- induction of PGC-1 expression levels, real time PCR ([14]; 25 μM FCCP): 5.5 fold
- increase in PGC-1α expression, real time PCR ([14]; 25 μM and 50 μM FCCP): 5-6 fold
- induction of PGC-1α levels, real time PCR ([14]; 50 μM FCCP): 5 fold
- COX II expression [3, 27]: induced
- PGC-1α RNA and protein levels in brown fat and muscle tissue ([15]; daily IP injection of FCCP): increase
- body weight and adiposity ([15]; safe dose of FCCP, daily IP injection): decrease
- ATP synthase expression [4, 27]: induced
- PGC-1α protein expression [16]: induced
- cytochrome c protein levels [17]: induced
- PGC-1β expression levels ([18]; 25 μM FCCP, after 10-15 hours, remained induced until 25 hours): induced
- PGC-1β expression levels [18, 28]: did not increase
- cytochrome c expression [5, 27]: induced
- PGC-1β expression [6, 27]: induced
- AMP Kinase activation (phospho-AMP kinase) ([1]; 50 μM FCCP): activated
- drop in cellular ATP levels ([19]; 5 hours, versus untreated cells): 25%
- ATP levels below that of untreated cells ([19]; 10 hours): approximately 20%
- PGC-1α expression levels ([8]; 25 μM FCCP, after 5 hours, sustained for 20 additional hours): induced
- PGC-1α expression levels [8, 28]: increased
- FCCP induction of cytochrome c in cells that lack PGC-1α [20]: blocked
- FCCP induction of COX II in cells that lack PGC-1α [21]: blocked
- FCCP induction of NRF-1 in cells that lack PGC-1α [22]: blocked
- FCCP induction of PGC-1β in cells that lack PGC-1α [23]: blocked
- FCCP induction of adenine nucleotide translocase (ANT) in cells that lack PGC-1α [24]: blocked
- FCCP induction of ERRα in cells that lack PGC-1α [25]: blocked

Compound: N.N.N.N.N.N.N.N.N.N.N.N.N.N.[Cl-].[Cl-].[Cl-].[Cl-].[Cl-].[Cl-].[O-2].[O-2].[Ru+3].[Ru+3].[Ru+4] [Ruthenium Red]
- effect on FCCP-mediated induction of PGC-1α expression ([8]; 5 hours, 0-50 μM Ruthenium Red with 5 μM or 25 μM FCCP, reduced at 5, 10 and 25 μM RR): blocked part

Compound: C=C1[C@@H]2CC[C@H]3[C@]4(C)C[C@H](O[C@@H]5O[C@H](CO)[C@@H](OS(=O)(=O)O)[C@H](OS(=O)(=O)O)[C@H]5OC(=O)CC(C)C)C[C@@H](C(=O)O)[C@H]4CC[C@]3(C2)[C@H]1O [atractyloside]
- PGC-1α expression ([8]; 5 μM atractyloside, 10 hours): increased
- PGC-1α expression ([8]; 50 μM atractyloside, 5 hours): increased

Compound: Antimycin A
- PGC-1α expression ([8]; 5 μM Antimycin A): increased
- PGC-1α expression levels ([8]; 10 μM Antimycin): increase
